From patent publication US20250230472A1, “EXTRACTION OF ALKANOIC ACIDS” (priority 2018, published 2025) come the findings set out here.

This data set in a line: Distribution coefficient of carboxylic acids, water / 20% TAPO in Fragoltherm, two-phase co-culture. Particulars: water and 20% TAPO in Fragoltherm, pH 6.6, after 67 h cultivation at 37° C. In kind it is physicochemical.

Procedure: The bacterium Clostridium kluyveri was cultivated in a co culture with Clostridium autoethanogenum for the biotransformation of ethanol and acetate to medium chain fatty acids. For the inSitu extraction of the produced acids the aqueous phase was overlayed with a mixture of Fragoltherm Q-32-N with trialkylphosphineoxide (TAPO). All cultivation steps were carried out under anaerobic conditions, the preculture in a stainless steel bubble column loop reactor and the main culture in a pressure-resistant glass bottle that can be closed airtight with a butyl rubber stopper.
The aqueous phase was then overlayed with 20 ml anaerobisized extracting agent (20% trialkylphosphineoxid (TAPO) in Fragoltherm Q-32-N). The bottle with the two-layer phases was then cultivated at 37° C., 150 rpm and with a gas atmosphere of 10% H2 and 90% N2 in an open water bath shaker for 67 h. The gas atmosphere in the bottle was flushed once a day for 10 min with pure N2.
During cultivation several 5 mL samples from both, the aqueous and the organic phase, were taken to determinate OD600 nm, pH and product formation. The determination of the product concentrations in the aqueous phase was performed by semiquantitative 1H-NMR spectroscopy and high performance liquid chromatography (HPLC) and in the organic phase by semiquantitative 1H-NMR spectroscopy and gas chromatography (GC). […]

For `CCCCCC(=O)O` [hexanoic acid], the “distribution coefficient K(D)” value is given as 4.33.

Consider `CCCCCCCC(=O)O` [octanoic acid], for which the “distribution coefficient K(D)” value is given as 108.
